Source: patent publication US20130331347A1, “Treatment of Clostridium Difficile Infection in Patients Undergoing Antibiotic Therapy” (Optimer Pharmaceuticals, Inc., priority 2010, published 2013)

System: Clostridium difficile infection (CDI)
Assay: Concomitant antibiotics (CAs) during CDI treatment: PO fidaxomicin vs PO vancomycin, clinical outcome review
Type: in vivo, human
Details: for Global Cure (clinical cure with no recurrence) / Clinical Cure / Recurrence: per protocol (PP); for Clinical Cure: 10 days of study drug; for Recurrence: CDI recurrence during 4-wk follow-up
Experimental: Administration of concomitant antibiotics (CAs) to subjects during the 10 days of study drug administration (PO Fidaxomicin (FDX 200 mg BID)) vs. (PO Vancomycin (Vanc 125 mg QID)) through 4-wk follow-up period was reviewed. End points were the effect of CAs on clinical cure, CDI recurrence during 4-wk follow-up, and global cure (clinical cure with no recurrence).

[1] = in those who received CAs, in words

| SMILES | Global Cure (clinical cure with no recurrence) (CA (concomitant antibiotics)) [%] | Clinical Cure (CA (concomitant antibiotics)) [%] | Recurrence (CA (concomitant antibiotics)) [%] | Global Cure (clinical cure with no recurrence) (No CA) [%] | Clinical Cure (No CA) [%] | Recurrence (No CA) [%] | CDI recurrences compared to Vanc [1] | global cures compared to Vanc [1] |
| --- | --- | --- | --- | --- | --- | --- | --- | --- |
| CCc1c(Cl)c(O)c(Cl)c(O)c1C(=O)O[C@H]1[C@H](O)[C@H](OC)[C@H](OC/C2=C\C=C\C[C@H](O)/C(C)=C/[C@H](CC)[C@@H](O[C@@H]3OC(C)(C)[C@@H](OC(=O)C(C)C)[C@H](O)[C@@H]3O)/C(C)=C/C(C)=C/C[C@@H]([C@@H](C)O)OC2=O)O[C@@H]1C [FDX, fidaxomicin] | 72 | 87 | 23 | 79 | 93 | 11 | lower | significantly improved |
| CN[C@H](CC(C)C)C(=O)N[C@H]1C(=O)N[C@@H](CC(N)=O)C(=O)N[C@H]2C(=O)N[C@H]3C(=O)N[C@H](C(=O)N[C@H](C(=O)O)c4cc(O)cc(O)c4-c4cc3ccc4O)[C@H](O)c3ccc(c(Cl)c3)Oc3cc2cc(c3O[C@@H]2O[C@H](CO)[C@@H](O)[C@H](O)[C@H]2O[C@H]2C[C@](C)(N)[C@H](O)[C@H](C)O2)Oc2ccc(cc2Cl)[C@H]1O [Vanc, Vancomycin, reference compound] | 50 | 77 | 40 | 72 | 94 | 18 | – | – |
